What was measured:
[1] = tested on: phospho-cdc2 (Tyr15) in HT-29 cells; assay: Effect on Cdc2 phosphorylation at Tyr15, Cell-Based ELISA Base Kit (Method 3); settings: Homo sapiens, HT-29, 8 h, eight hours incubation, normalized to total cdc2, read-out: HT29 pCDC2 method 3
In short: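 HT-29 cells were treated with compounds for 8 h at 37 °C, then fixed in 4% formaldehyde. Phospho-cdc2 (Tyr15) and total cdc2 were read by dual-fluorogenic cell-based ELISA at 600/450 nm. Phospho signal was normalized to total cdc2 and expressed as % of DMSO control, and EC50 came from non-linear regression.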

[2] = CLint estimates using human liver microsomes (Method 4); format: in vitro ADME; settings: pH 7.4, 1 μM compound, read-out: Mics - CLint (HLM CLint)
In short: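 Compound at 1 μM (0.1% DMSO) incubated with human liver microsomes (0.5 mg protein/mL) in 0.1 M phosphate pH 7.4 at 37 °C, started with 1 mM NADPH. Samples taken 2–50 min, quenched in methanol, measured by LC/MS/MS (MRM). Half-life and CLint derived from the slope of ln peak area versus time.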

microsomal CLint at 1 μM [2] | Compound | EC50 [1]
15 to 50 µL/min/mg | CN1CN(c2c(Cl)cccc2Cl)C(=O)c2cnc(Nc3ccc(N4CCNCC4)cc3)nc21 [Example 1, 3-(2,6-Dichlorophenyl)-1-methyl-7-((4-(piperazin-1-yl)phenyl)amino)-2,3-dihydropyrimido[4,5-d]pyrimidin-4(1H)-one] | 100 to 1000 nM
≤ 15 µL/min/mg | CNCCOc1ccc(Nc2ncc3c(n2)N(C)CN(c2c(Cl)cccc2Cl)C3=O)cc1 [Example 2, 3-(2,6-Dichlorophenyl)-1-methyl-7-((4-(2-(methylamino)ethoxy)phenyl)amino)-2,3-dihydropyrimido[4,5-d]pyrimidin-4(1H)-one] | 100 to 1000 nM
15 to 50 µL/min/mg | COc1cc(Nc2ncc3c(n2)N(C)CN(c2c(Cl)cccc2Cl)C3=O)ccc1N1CCNCC1 [Example 3, 3-(2,6-Dichlorophenyl)-7-((3-methoxy-4-(piperazin-1-yl)phenyl)amino)-1-methyl-2,3-dihydropyrimido[4,5-d]pyrimidin-4(1H)-one] | 100 to 1000 nM
≤ 15 µL/min/mg | CNCc1cc(Nc2ncc3c(n2)N(C)CN(c2c(Cl)cccc2Cl)C3=O)ccc1N1CCOCC1 [Example 5, 3-(2,6-Dichlorophenyl)-1-methyl-7-((3-((methylamino)methyl)-4-morpholinophenyl)amino)-2,3-dihydropyrimido[4,5-d]pyrimidin-4(1H)-one] | 100 to 1000 nM
15 to 50 µL/min/mg | Cc1cc(Nc2ncc3c(n2)N(C)CN(c2c(Cl)cccc2Cl)C3=O)ccc1N1CCNCC1 [Example 6, 3-(2,6-Dichlorophenyl)-1-methyl-7-((3-methyl-4-(piperazin-1-yl)phenyl)amino)-2,3-dihydropyrimido[4,5-d]pyrimidin-4(1H)-one] | 100 to 1000 nM
≤ 15 µL/min/mg | CN1CN(c2c(Cl)cccc2Cl)C(=O)c2cnc(Nc3ccc(N4CCNCC4)c(C#N)c3)nc21 [Example 11, 3-(2,6-Dichlorophenyl)-7-((3-cyano-4-(piperazin-1-yl)phenyl)amino)-1-methyl-2,3-dihydropyrimido[4,5-d]pyrimidin-4(1H)-one] | 100 to 1000 nM
≤ 15 µL/min/mg | CN1CN(c2c(Cl)cccc2Cl)C(=O)c2cnc(Nc3ccc(N4CCN(C(=O)CN)CC4)cc3)nc21 [Example 13, 7-((4-(4-(2-Aminoacetyl)piperazin-1-yl)phenyl)amino)-3-(2,6-dichlorophenyl)-1-methyl-2,3-dihydropyrimido[4,5-d]pyrimidin-4(1H)-one] | 100 to 1000 nM
≤ 15 µL/min/mg | CN1CN(c2c(Cl)cccc2Cl)C(=O)c2cnc(Nc3ccc4c(c3)CNCC4)nc21 [Example 14, 3-(2,6-Dichlorophenyl)-1-methyl-7-((1,2,3,4-tetrahydroisoquinolin-7-yl)amino)-2,3-dihydropyrimido[4,5-d]pyrimidin-4(1H)-one] | 100 to 1000 nM
≤ 15 µL/min/mg | [2H]C1([2H])N(C)c2nc(Nc3ccc(N4CCNCC4)cc3)ncc2C(=O)N1c1c(Cl)cccc1Cl [Example 15, 3-(2,6-Dichlorophenyl)-2,2-dideutero-1-methyl-7-((4-(piperazin-1-yl)phenyl)amino)-2,3-dihydropyrimido[4,5-d]pyrimidin-4(1H)-one] | 100 to 1000 nM
≤ 15 µL/min/mg | C[C@@H]1CN(c2ccc(Nc3ncc4c(n3)N(C)CN(c3c(Cl)cccc3Cl)C4=O)cc2)CCN1 [Example 16, (R)-3-(2,6-Dichlorophenyl)-1-methyl-7-((4-(3-methylpiperazin-1-yl)phenyl)amino)-2,3-dihydropyrimido[4,5-d]pyrimidin-4(1H)-one] | 100 to 1000 nM
15 to 50 µL/min/mg | C[C@H]1CN(c2ccc(Nc3ncc4c(n3)N(C)CN(c3c(Cl)cccc3Cl)C4=O)cc2)CCN1 [Example 17, (S)-3-(2,6-Dichlorophenyl)-1-methyl-7-((4-(3-methylpiperazin-1-yl)phenyl)amino)-2,3-dihydropyrimido[4,5-d]pyrimidin-4(1H)-one] | 100 to 1000 nM
≤ 15 µL/min/mg | Cc1cc(Nc2ncc3c(n2)N(C)CN(c2c(Cl)cccc2Cl)C3=O)ccc1C1CCNCC1 [Example 18, 3-(2,6-Dichlorophenyl)-1-methyl-7-((3-methyl-4-(piperidin-4-yl)phenyl)amino)-2,3-dihydropyrimido[4,5-d]pyrimidin-4(1H)-one] | 100 to 1000 nM
≤ 15 µL/min/mg | CN1CN(c2c(Cl)cccc2Cl)C(=O)c2cnc(Nc3ccc(N4CCN[C@@H](CO)C4)cc3)nc21 [Example 19, (R)-3-(2,6-Dichlorophenyl)-7-((4-(3-(hydroxymethyl)piperazin-1-yl)phenyl)amino)-1-methyl-2,3-dihydropyrimido[4,5-d]pyrimidin-4(1H)-one] | 100 to 1000 nM
15 to 50 µL/min/mg | CC(C)N1CCN(c2ccc(Nc3ncc4c(n3)N(C)CN(c3c(Cl)cccc3Cl)C4=O)cc2CO)CC1 [Example 21, 3-(2,6-Dichlorophenyl)-7-((3-(hydroxymethyl)-4-(4-isopropylpiperazin-1-yl)phenyl)amino)-1-methyl-2,3-dihydropyrimido[4,5-d]pyrimidin-4(1H)-one] | 100 to 1000 nM
15 to 50 µL/min/mg | CN1CCc2ccc(Nc3ncc4c(n3)N(C)CN(c3c(Cl)cccc3Cl)C4=O)cc2C1 [Example 22, 3-(2,6-Dichlorophenyl)-1-methyl-7-((2-methyl-1,2,3,4-tetrahydroisoquinolin-7-yl)amino)-2,3-dihydropyrimido[4,5-d]pyrimidin-4(1H)-one] | 100 to 1000 nM
≤ 15 µL/min/mg | CN1CN(c2c(F)cccc2Cl)C(=O)c2cnc(Nc3ccc(N4CCNCC4)cc3)nc21 [Example 25, 3-(2-Chloro-6-fluorophenyl)-1-methyl-7-((4-(piperazin-1-yl)phenyl)amino)-2,3-dihydropyrimido[4,5-d]pyrimidin-4(1H)-one] | 100 to 1000 nM
≤ 15 µL/min/mg | COCc1cc(Nc2ncc3c(n2)N(C)CN(c2c(Cl)cccc2Cl)C3=O)ccc1N1CCNCC1 [Example 31, 3-(2,6-dichlorophenyl)-7-((3-(methoxymethyl)-4-(piperazin-1-yl)phenyl)amino)-1-methyl-2,3-dihydropyrimido[4,5-d]pyrimidin-4(1H)-one] | 100 to 1000 nM
≤ 15 µL/min/mg | C[C@@H]1CN[C@@H](C)CN1c1ccc(Nc2ncc3c(n2)N(C)CN(c2c(Cl)cccc2Cl)C3=O)cc1 [Example 40, 3-(2,6-dichlorophenyl)-7-((4-((2R,5S)-2,5-dimethylpiperazin-1-yl)phenyl)amino)-1-methyl-2,3-dihydropyrimido[4,5-d]pyrimidin-4(1H)-one] | 100 to 1000 nM
≤ 15 µL/min/mg | C[C@@H]1CN(c2ccc(Nc3ncc4c(n3)N(C)CN(c3c(Cl)cccc3Cl)C4=O)cc2F)CCN1 [Example 43, (R)-3-(2,6-dichlorophenyl)-7-((3-fluoro-4-(3-methylpiperazin-1-yl)phenyl)amino)-1-methyl-2,3-dihydropyrimido[4,5-d]pyrimidin-4(1H)-one] | 100 to 1000 nM
≤ 15 µL/min/mg | C[C@@H]1CN(c2ccc(Nc3ncc4c(n3)N(C)CN(c3c(F)cccc3Cl)C4=O)cc2)CCN1 [Example 53, (R)-3-(2-chloro-6-fluorophenyl)-1-methyl-7-((4-(3-methylpiperazin-1-yl)phenyl)amino)-2,3-dihydropyrimido[4,5-d]pyrimidin-4(1H)-one] | 100 to 1000 nM
≤ 15 µL/min/mg | COCc1cc(Nc2ncc3c(n2)N(C)CN(c2c(Cl)cccc2Cl)C3=O)ccc1N1CCN[C@H](C)C1 [Example 59, (R)-3-(2,6-dichlorophenyl)-7-((3-(methoxymethyl)-4-(3-methylpiperazin-1-yl)phenyl)amino)-1-methyl-2,3-dihydropyrimido[4,5-d]pyrimidin-4(1H)-one] | 100 to 1000 nM
≤ 15 µL/min/mg | COC[C@H]1CN(c2ccc(Nc3ncc4c(n3)N(C)CN(c3c(Cl)cccc3Cl)C4=O)cc2)CCN1 [Example 60, (R)-3-(2,6-dichlorophenyl)-7-((4-(3-(methoxymethyl)piperazin-1-yl)phenyl)amino)-1-methyl-2,3-dihydropyrimido[4,5-d]pyrimidin-4(1H)-one] | 100 to 1000 nM
15 to 50 µL/min/mg | C[C@@H]1CN(c2ccc(Nc3ncc4c(n3)N(C)CN(c3c(Cl)cccc3Cl)C4=O)cc2)[C@@H](C)CN1 [Example 80, 3-(2,6-dichlorophenyl)-7-((4-((2S,5R)-2,5-dimethylpiperazin-1-yl)phenyl)amino)-1-methyl-2,3-dihydropyrimido[4,5-d]pyrimidin-4(1H)-one] | 100 to 1000 nM

Compound | microsomal CLint at 1 μM [2] | EC50 [1]
CN1CN(c2c(Cl)cccc2Cl)C(=O)c2cnc(Nc3ccc(N4CC5CCC(C4)N5)cc3)nc21 [Example 74, 7-((4-(3,8-diazabicyclo[3.2.1]octan-3-yl)phenyl)amino)-3-(2,6-dichlorophenyl)-1-methyl-2,3-dihydropyrimido [4,5-d]pyrimidin-4(1H)-one] | ≤ 15 µL/min/mg | 100 to 1000 nM
CN1CN(c2c(Cl)cccc2Cl)C(=O)c2cnc(Nc3ccc(N4CC5CCC(C4)N5C)c(CO)c3)nc21 [Example 86, 3-(2,6-dichlorophenyl)-7-((3-(hydroxymethyl)-4-(8-methyl-3,8-diazabicyclo[3.2.1]octan-3-yl)phenyl)amino)-1-methyl-2,3-dihydropyrimido[4,5-d]pyrimidin-4(1H)-one] | ≤ 15 µL/min/mg | 100 to 1000 nM

Reference: patent US9850247B2 (Almac Discovery Limited, priority 2013, dated 2017)
